From patent US10995117B2, “Peptide for skin regeneration or wound treatment and use thereof” (KINE SCIENCES CO., LTD., priority 2016, dated 2021)

Legend:
human dermal fibroblasts = test: Procollagen secretion of human dermal fibroblasts (PIP EIA Kit); type: cell-based; settings: peptide 100, 10, 1 ng/ml, versus control group and TGF-treated group
Protocol: (§1) Collagen is a main ingredient of skin connective tissues, and increased collagen expression is essential in wound healing such as a gash or skin regeneration. As a result, in Example 2, the production ability of collagen of human dermal fibroblasts (HDF) according to the treatment of the peptide (peptide 1) prepared in Example 1 was evaluated by an experimental method disclosed in the existing document (J. Biol. Chem. 1993 268(14): 9941-9944). First, the human dermal fibroblasts were cultured in a DMEM medium added with 10% fetal bovine […] (FBS), and the cultured cells were divided into a 6-well plate at a concentration of 2×10^5 cell/well and cultured for 24 hours, and then the medium was replaced with 2% FBS. After 24 hours from this, the cells were treated with the peptide (100, 10, 1 ng/ml) of the present invention, and thereafter, an amount of procollagen secreted to the culture medium was measured by using a Procollagen Type I C-peptide (PIP) EIA Kit, RNA was extracted with a Trizol reagent, and then the expression of Col1A1 (collagen type I, alpha 1) mRNA of the human dermal fibroblasts was confirmed through real-time PCR. Meanwhile, a separately untreated group (Control) was used as a control group and a TGF-treated group (TGF-) was used as a positive control group.

[1] = test system: Col1A1 (collagen type I, alpha 1) mRNA; test: Col1A1 mRNA expression of human dermal fibroblasts (real-time PCR); type: cell-based; settings: at a concentration of 10 ng/ml or more
Protocol: as §1

tyrosinase = biological target: T1, tyrosinase (Mus musculus, UniProt P11344); test: Tyrosinase activity of melanoma cell line (L-DOPA); type: cell-based; settings: 24 hours
T1 construct: endogenous in cells; host or cells: B16F10 melanoma cells stimulated with alpha-MSH; Triton X-100 lysate supernatant
T1 sequence (P11344 19-533): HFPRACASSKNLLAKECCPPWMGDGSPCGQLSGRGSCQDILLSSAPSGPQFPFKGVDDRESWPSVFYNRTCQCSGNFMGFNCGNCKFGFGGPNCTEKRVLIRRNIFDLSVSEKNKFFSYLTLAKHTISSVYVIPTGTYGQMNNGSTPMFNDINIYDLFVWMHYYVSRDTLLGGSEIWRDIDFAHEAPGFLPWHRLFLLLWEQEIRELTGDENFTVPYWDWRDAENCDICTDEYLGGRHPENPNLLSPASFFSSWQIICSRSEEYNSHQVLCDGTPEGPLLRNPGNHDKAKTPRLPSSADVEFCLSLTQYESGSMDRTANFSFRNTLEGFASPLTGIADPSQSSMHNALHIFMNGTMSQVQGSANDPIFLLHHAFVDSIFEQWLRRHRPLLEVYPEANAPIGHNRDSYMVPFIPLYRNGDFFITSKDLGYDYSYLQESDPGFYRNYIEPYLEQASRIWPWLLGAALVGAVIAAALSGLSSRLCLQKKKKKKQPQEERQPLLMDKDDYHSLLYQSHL
Protocol: Tyrosinase as a rate-regulating enzyme that catalyzes the reaction in the melanin biosynthesis process was known to play a crucial role in regulating the amount of melanin in the cells. Thus, in Example 4, the tyrosinase activity of the melanoma cell line according to the treatment of the peptide (peptide 1) prepared in Example 1 was evaluated by an experimental method disclosed in the existing document (J. Dermatol. Sci. Vol. 57 (2010) 170-177). The melanoma cell line, B16F10 cells, was divided into a 12 well-plate at a concentration of 1×10^5 cells/well and cultured for 24 hours, and then treated with α-MSH ([…]) and the peptide of the present invention (1, 10, 100 ng/ml), cultured for 24 hours again, and then was washed with PBS and suspended in a 50 mM phosphate buffer (pH 6.8) containing 1% Triton X-100 after washing each well with PBS. After vortexing, the cells was frozen at […] for 30 minutes, dissolved at room temperature, and centrifuged at 1000 g for 10 minutes, and then 40 μl of a supernatant and 100 μl of 10 mM L-DOPA were added to a 96 well-plate and reacted at 37° C. Thereafter, the absorbance was measured at 405 nm with an ELISA reader to confirm the tyrosinase activity of the melanoma cell line. Meanwhile, a separate untreated group was used as a control group and a α-MSH-treated group and a Kojic acid-treated group were used as a positive control group.

B16F10 cells = test: Melanin production of melanoma cell line; type: cell-based; settings: 24 hours
Protocol: The color of the skin is determined by an amount of melanin pigment produced by melanoma cells, and many studies have been conducted to improve abnormal pigmentation of the skin. Particularly, excessive pigmentation caused by chronic gashes is considered as a major medical problem, but no definitive treatment method has yet been developed. Thus, in Example 2, the production ability of melanin of a melanoma cell line according to the treatment of the peptide (peptide 1) prepared in Example 1 was evaluated by an experimental method disclosed in the existing document (Life Sci. 2013 Aug. 14; 93(5-6):226-32). The melanoma cell line, B16F10 cells, was cultured in a DMEM medium added with 10% fetal bovine […], and the cultured cells were divided into a 12 well-plate at a concentration of 1×10^5 cells/well. After the culture for 24 hours, α-MSH (10 uM) promoting melanin synthesis and the peptide (1, 10, and 100 ng/ml) of the present invention were treated and cultured again for 24 hours, added with 200 μl of a 1N NaOH solution after washing each well with PBS, and then dissolved at 100° C. for 30 minutes. Thereafter, the absorbance was measured at 405 nm with an ELISA reader to confirm the amount of melanin produced from the melanoma cell line. Meanwhile, an untreated group was used as a control group and a α-MSH-treated group was used as a positive control group.

HaCaT cells = test: Scratch assay, in vitro wound healing model; type: cell-based, human; settings: for wound size (quantified) / migration of HaCaT cells: peptide 1 or 10 ng/ml; for migration of HaCaT cells: Mitomycin C pretreated
Protocol: In Example 5, the wound treatment effect according to the treatment of the peptides (peptides 1 and 2) prepared in Example 1 was confirmed through a scratch assay. A human epithelial cell line, HaCaT cells was cultured for 2 hours by adding Mitomycin C (10 ug/ml) in a serum-free medium to […]. After the cells were treated with the peptide (1 or 10 ng/ml) and TGF-β (1 ng/ml) as a positive control group in a medium added with 10% FBS, the migration ability of cells was observed over time and the reduction in wound size was quantified.

Balb/c nude mouse [2] = test: Acute wound animal model, histological change (H&E staining); type: in vivo; settings: skin tissue on day 5 after acute wound
Protocol: (§2) After an 8-week-old Balb/c nude mouse was anesthetized with Avertin (2.5%), the skin of the animal's back was cut by using a circular punch having a 10 mm diameter to induce an acute wound. The peptide was treated (500 ng/one time) at the site of excision total 5 times at 24-hour intervals at the site of excision and reduction of the wound area over time was measured for 14 days and an EGF was used as a positive control group (10 ug/one time). In this case, the peptide was treated with 20% pluronic F-127 (PBS) in a mixture state and the wound sizes over time were measured and digitized using a digital camera and an ImageJ program and compared with each other.
An acute wound was induced in the same manner as in Example 6-1, and the skin tissue was cut on 5 day after the acute wound was induced to prepare tissue fragments. Thereafter, histological changes according to peptide treatment were observed by H&E staining and observing the H&E staining by a microscope. Meanwhile, an EGF was used as a positive control group.

Balb/c nude mouse [3] = test: Acute wound animal model, change in wound size; type: in vivo; settings: 10 mm punch wound, 500 ng/one time, 5 times at 24-hour intervals, 14 days
Protocol: as §2

Substance | secretion amount of procollagen (human dermal fibroblasts) | expression of Col1A1 [1] | tyrosinase activity of the melanoma cell line (tyrosinase; B16F10 cells, 10, 100 ng/ml, no significant difference from Kojic acid-treated group) | production amount of melanin (B16F10 cells; α-MSH (10 uM) plus peptide 1, 10, 100 ng/ml, no significant difference from non-α-MSH-treated group) | wound size (quantified) (HaCaT cells; HaCaT cells) | migration of HaCaT cells (HaCaT cells) | epithelialization (Balb/c nude mouse [2]) | thicknesses of epidermis and dermis layers (Balb/c nude mouse [2]) | wound reduction effect at low concentration (HaCaT cells; HaCaT cells, 1 ng/ml) | wound size effect compared with peptide 1 (HaCaT cells; HaCaT cells, 1 or 10 ng/ml) | wound treatment effect compared with peptide 1 (Balb/c nude mouse [3]) | tyrosinase activity of the melanoma cell line (tyrosinase; B16F10 cells) | amount of melanin produced (B16F10 cells; α-MSH (10 uM) alone)
REGRT (peptide 1) | increased compared to the control group and the TGF-treated group | significantly increased | greatly reduced | greatly reduced | significant reduction | increased in a peptide concentration-dependent manner | actively progressed | larger than those of a PBS negative control group | – | – | – | – | –
REGRTREGRT (peptide 2) | – | – | – | – | significant reduction | increased in a peptide concentration-dependent manner | actively progressed | larger than those of a PBS negative control group | definite wound reduction effect | more remarkable | excellent effect as compared to the case treated with the peptide 1 | – | –
α-MSH [reference compound] | – | – | – | – | – | – | – | – | – | – | – | greatly increased | a large amount of melanin was produced
